Measurements published in patent US10082499B2, “Short term isotope pulse labeling method for analysing metabolic products in biological samples” (Max-Delbrueck-Centrum fuer Molekulare Medizin, priority 2014, dated 2018).
“Also recorded” adds a separate entry of the source.

System: T98G cells
Assay: pSIRM analysis of glycolytic inhibition (13C-glucose pulse labeling, GC-MS)
Type: cell-based
Experimental: GC-MS measurement: Metabolite analysis was performed on a gas chromatography coupled to time of flight mass spectrometer (LECO-Pegasus III— TOF-MS-System, LECO), supplemented with an auto-sampler (MultiPurpose Sampler 2 XL, Gerstel). Samples and quantification standards were injected in split mode (split 1:5, injection volume: 1 ul,) in a temperature-controlled injector (CAS4, Gerstel) with a baffled glass-liner (Gerstel). The following temperature program was applied during sample injection: Initial temperature of 80° C. for 30 s followed by a ramp with 12° C./min to 120° C. and a second ramp with 7° C./min to 300° C. and final hold for 2 min. Gas chromatographic separation was performed on an Agilent 6890N (Agilent), equipped with a Varian VF-5 ms-column of 30 m length, 250 μm inner diameter and 0.25 μm film thickness (Varian). Helium was used as carrier gas with a flow rate of 1.2 mL/min. Gas chromatography was performed with the following temperature gradient: 2 min heating at 70° C., first temperature gradient with 5° C./min up to 120° C. and hold for 30 s, subsequently a second temperature increase of 7° C./min up to 350° C. with a hold time of 2 min. Spectra were recorded in a mass range of 60 to 600 u with 20 spectra/s at a detector voltage of 1750 V.
Data analysis: The vendor software ChromaTOF Version 4.42 (LECO Corp. St. Joseph—USA) was used for metabolite evaluation with the following parameter: baseline offset of 1, peak width of 4 s, signal/noise of 20, peak smoothing of 11 data-points. Retention indices were calculated based on retention index standards as described (Ref). GoIm Metabolome Database (GMD) provided peak identification. The quantification routine of ChromaTOF was used for external calibration based on the measured quantification standards. Exported csv-files included: Name, quant mass, retention index, 1st dimension retention time, 2nd dimension retention time, area, concentration, match, reverse, quant signal/noise, type, concentration units and the peak true spectrum in absolute values. For further data analysis the tool MetMax was developed in cooperation with the MPIMP in Potsdam-Golm (http://gmd.mpimp-golm.mpg.de/apps/metmax). MetMax provided of extraction of peak areas and quantities (retention analysis mode), and intensities of pre-defined mass ranges (isotope concentrator mode) from the exported csv-files. The in-house developed pSIRM-wizard enabled the determination of ^13C-label incorporation based on the exported data following the descriptions and equations stated in the paper.
Cell harvest: Growth media was removed from cells and cells were incubated in 5 ml of prewarmed (37° C.) wash-buffer (137 mM NaCl, 3 mM KCl, 5 mM HEPES, adjusted to a pH of 7.2-7.4) enriched with the same amount of glucose and glutamine as in the growth media (2.5 g/L and 4 mM respectively). For the metabolic labeling the wash-buffer is used as labeling buffer with glucose or glutamine replaced by their ^13C-counterpart. Cells were incubated for 3 minutes at 37° C. before harvest. The buffer was removed followed by an immediate addition of 5 ml of prechilled (−20 to −40° C.) 50% MeOH (with 2-4 μg/mL Cinnamic acid as internal standard) to the plate. Cells were scratched of the plates using cell-scraper and transferred to a falcon, which contain 1 ml of chloroform. Cell suspension was frozen in liquid nitrogen and stored at −80° C. until extraction. To extract cell metabolism the suspension was shaken for 30 minutes at 4° C., followed by a centrifugation for 10 minutes to perform phase separation. 4.5 ml of the upper, polar phase were transferred into a new falcon and dried under vacuum. On the next day the pellet was resuspended in 530 μl 20% Methanol (4° C.), shaken at 4° C. until completely solved, transferred into two eppies (2×250 μl) and dried under vacuum. The dried samples were stored at −20° C. and derivatized as described above. […]

[1] = 2 mM inhibitor 12 min + 3 min 13C-glucose
[2] = 2 mM inhibitor 12 min, then 3 min 13C-glucose in presence of inhibitor

| Compound | 13C-glucose incorporation (carbon flow) into citrate [1] | inhibitory effect on glycolysis [1] | isotope incorporation in pyruvate and lactate / pyruvate or lactate levels [1] | reduction of the 13C-fraction of hexose-phosphates [2] [%] | inhibitory effect on glycolysis (10 mM inhibitor) | isotope incorporation rates in G6P (10 mM inhibitor) | reduction of glycolytic flow (10 mM inhibitor) | carbon flow downstream of GAPDH (2 mM inhibitor) | concentration of 3PGA [1] | labelled fraction of G6P and F6P [1] | total concentration of G6P and F6P (hexose phosphates) [1] | reduction of carbon-flow into pyruvate, lactate and citrate [2] |
| --- | --- | --- | --- | --- | --- | --- | --- | --- | --- | --- | --- | --- |
| O=CC[C@@H](O)[C@H](O)[C@H](O)CO [2DG, 2-deoxyglucose] | extended; also recorded: increasing | negligible | affected only marginally; also recorded: did not affect | 20 | stronger inhibition | not affected | up to 80% |  |  |  |  |  |
| O=C(O)C(=O)CBr [BrPyr] |  | nearly completely inhibited |  |  |  |  |  | strong decline | diminished below the detection limit | reduced | increased | around 100% |
